# Experimental data published in patent US4419123A, “Herbicidal 4-trifluoromethyl-3'-carbon-substituted-4'-substituted diphenyl ethers” (Rohm and Haas Company, priority 1981, dated 1983).
# What was measured:
# [1] = Postemergence herbicidal activity (% control) against dicot weeds; conditions: post-emergence, 336 h; for activity at 2241.7 g/ha: read-out: Herbicidal activity (% control), postemergence, dicots, 2 lb./A., average, about two weeks after application; for activity at 4483.4 g/ha: read-out: Herbicidal activity (% control), postemergence, dicots, 4 lb./A., average, about two weeks after application
# [2] = Preemergence herbicidal activity (% control) against dicot weeds; conditions: pre-emergence, 336 h; for activity at 2241.7 g/ha: read-out: Herbicidal activity (% control), preemergence, dicots, 2 lb./A., average, about two weeks after application; for activity at 4483.4 g/ha: read-out: Herbicidal activity (% control), preemergence, dicots, 4 lb./A., average, about two weeks after application
# [3] = Postemergence herbicidal activity (% control) against monocot weeds; assay type: in vivo; conditions: post-emergence, 336 h, average, about two weeks after application, read-out: Herbicidal activity (% control), postemergence, monocots; for activity at 2241.7 g/ha: 2 lb./A.; for activity at 4483.4 g/ha: 4 lb./A.
# Text: (§1) barnyardgrass (Echinochloa crusgalli) crabgrass (Digitaria spp.) nutsedge (Cyperus esculentus)
# (§2) At 2 and 4 pounds per acre:
# (§3) **Bermudagrass (Cynodon dactylon)
# (§4) *downy brome (Bromus tectorum) foxtail (Setaria faberii)
# (§5) Johnsongrass (Sorghum halepense) […]
# (§6) quackgrass (Agropyron repens)
# (§7) *ryegrass (Lolium perenne)
# (§8) *wild oats (Avena factua)
# (§9) *yellow millet (Panicum miliaceum)
# (§10) The following test procedure is employed.
# [4] = Preemergence herbicidal activity (% control) against monocot weeds; assay type: in vivo; conditions: pre-emergence, 336 h, average, about two weeks after application, read-out: Herbicidal activity (% control), preemergence, monocots; for activity at 2241.7 g/ha: 2 lb./A.; for activity at 4483.4 g/ha: 4 lb./A.
# Text: as §1, §2, §3, §4, §5, §6, §7, §8, §9, §10
SMILES,activity at 2241.7 g/ha [1] [%],activity at 4483.4 g/ha [1] [%],activity at 2241.7 g/ha [2] [%],activity at 4483.4 g/ha [2] [%],activity at 2241.7 g/ha [3] [%],activity at 4483.4 g/ha [3] [%],activity at 2241.7 g/ha [4] [%],activity at 4483.4 g/ha [4] [%]
Nc1cc(Oc2ccc(C(F)(F)F)cc2Cl)ccc1[N+](=O)[O-] [Example 27],100,100,90,98,99,82,74,76
C=CCOc1cc(Oc2ccc(C(F)(F)F)cc2Cl)ccc1[N+](=O)[O-] [Example 12],100,100,93,96,99,77,72,86
CNC(=O)Nc1cc(Oc2ccc(C(F)(F)F)cc2Cl)ccc1[N+](=O)[O-] [Example 44],10,98,17,96,7,60,0,66
CCSC(=O)N(C(=O)SCC)c1cc(Oc2ccc(C(F)(F)F)cc2Cl)ccc1[N+](=O)[O-] [Example 46],4,30,87,20,0,0,34,0
O=C(O)COc1cc(Oc2ccc(C(F)(F)F)cc2Cl)ccc1[N+](=O)[O-] [Example 23],100,100,87,64,71,82,55,90
C#CCOc1cc(Oc2ccc(C(F)(F)F)cc2Cl)ccc1[N+](=O)[O-] [Example 13],–,98,72,90,100,77,78,76
CCSC(=O)Nc1cc(Oc2ccc(C(F)(F)F)cc2Cl)ccc1[N+](=O)[O-] [Example 45],78,88,77,58,53,17,68,13
CCCN(CCC)c1cc(Oc2ccc(C(F)(F)F)cc2Cl)ccc1[N+](=O)[O-] [Example 41],94,95,62,96,56,71,84,60
CCOC(=O)COc1cc(Oc2ccc(C(F)(F)F)cc2Cl)ccc1[N+](=O)[O-] [Example 24],100,99,97,68,84,86,62,91
CC(=O)CCOc1cc(Oc2ccc(C(F)(F)F)cc2Cl)ccc1[N+](=O)[O-] [Example 31],100,100,69,99,68,61,68,74
"O=[N+]([O-])c1ccc(Oc2ccc(C(F)(F)F)cc2Cl)cc1N1CCOCC1 [Example 28, 2-chloro-α,α,α-trifluoro-p-tolyl-3-morpholino-4-nitrophenyl ether]",100,99,–,95,73,73,79,74
